Measured values published in patent US8889840B2, “Vascular leakage inhibitor” (Industry-Academic Cooperation Foundation, Yonsei University, priority 2009, dated 2014).
Entries after “also recorded” stand apart in the source; their conditions may differ.

Tests used:
[1] = tested on: human umbilical vein endothelial cells (HUVECs); experiment: Serum depletion-induced apoptosis of HUVECs, MTT assay and cell morphology; assay type: cell-based; conditions: serum-free medium, 5 or 10 μg/mL, 24 and 48 hours
Experimental: FIGS. 1a-1b and FIGS. 2a-2d show the result of screening Rk1 analogs that protect human umbilical vein endothelial cells (HUVECs) from serum depletion-induced apoptosis. HUVECs (3×10^5 cells/well) were seeded on a 24-well plate in M199 medium containing 20% fetal bovine serum. The next day, the cells were transferred to a medium containing 5 μg/mL (FIG. 1a) or 10 μg/mL (FIG. 1b) of the synthesized compound. Cell viability was determined by MIT assay 24 hours and 48 hours later. FIGS. 2a-2d show the result of observing cell morphologies. […]
Based on the previous researches performed by the inventors, the synthesized derivatives of Rk1 having steroid backbone and having the ability of inhibiting apoptosis of vascular endothelial cells and inhibiting permeability were screened. First, the ability of inhibiting apoptosis of vascular endothelial cells was measured. […] The next day, the cells were transferred to serum-free 11199 medium containing 5 μg/mL (FIG. 1a) or 10 μg/mL (FIG. 1b) of the compound synthesized in Synthesis Example 1-4, Cell viability was determined by MTT assay (Mosmann T, Journal of ImmunalogiCal Methods 65(1-2): 55-63 (1983); Cory A H, et al., Cancer Communications 3(7): 207-12 (1991)) 24 hours and 48 hours later.

[2] = tested on: human retinal endothelial cells (HRECs); experiment: Serum depletion-induced apoptosis of HRECs, MTT assay and cell morphology; assay type: cell-based; conditions: serum-free medium, 0.1-10 μg/mL
Experimental: HRECs (3×10^4 cells/well) were seeded on a 24-well plate in M199 medium containing 20% fetal bovine serum. The next day, the cells were transferred to a medium containing […] Sac0601 (FIG. 4a) or 0.1-10 μg/mL Sac0504 (FIG. 4b). Cell viability was determined by MTT assay 48 hours later. FIGS. 5a-5c show the result of observing cell morphologies.
Human umbilical vein endothelial cells (HUVECs) and human retinal endothelial cells (HRECs) purchased from Cell Systems (USA) were seeded on a 100-mm culture dish in M199 medium (Life Technologies, USA) containing 20% (w/v) fetal bovine serum (FBS, HyClone, Canada), 100 units/mL penicillin (Invitrogen, USA), 100 μg/mL streptomycin (invitrogen, USA), 3 ng/mL basic fibroblast growth factor (bFGF, Upstate Biotechnology, USA) and 5 units/mL heparin and cultured in a 5% CO2 incubator at 37° C.
Also, HRECs were treated with the compounds synthesized in Synthesis Example 5 and MIT assay was performed 48 hours later in the same manner as described above.
Also, the acid compound wherein the methyl ester formed by the introduction of the ester group was hydrolyzed was synthesized to provide improved water solubility and activity. MYT assay was performed for the compounds synthesized in Synthesis Example 6 in the same manner as described above 48 hours after treatment.
Their ability of inhibiting apoptosis was confirmed again for HRECs. HRECs (3×10^4 cells/well) were seeded on a 24-well plate in M199 medium (1 mL) containing 20% fetal bovine serum, Next day, the cells were transferred to serum-free M199 medium containing 0.1-10 μg/ml. Sac060.1 (FIG. 4a) or 0.1-10 μg; mL Sac0504 (FIG. 4b). Cell viability was determined by MTF assay in the same manner as in Test Example 1.
Their ability of inhibiting apoptosis was confirmed again for HRECs.

[3] = tested on: HRECs; experiment: Restoration of TJ instability and cytoskeleton change induced by VEGF in HRECs; assay type: cell-based, human; conditions: 20 ng/mL VEGF 1 hour, then 10 μg/mL 1 hour
Experimental: In FIGS. 9a-9b, confluent HRECs were stimulated with 20 ng/mL VEGF (1 hr) before treating with Sac0504 and Sac0601. The cells were then stained with anti-occludin antibody (FIG. 9a) and rhodamine phalloidin (FIG. 9b).
Confluent HRECs were treated with 20 ng/mL. VEGF for 1 hour and then with 10 μg/mL Sac0601 or Sac0504 for 1 hour. Subsequently, the cells were stained with anti-occludin antibody (FIG. 9a) or […] (FIG. 9b) as described above.

[4] = tested on: HRECs; experiment: Permeability of HRECs on transwell filter, labelled sucrose; assay type: cell-based, human; conditions: 10 μg/mL 60 minutes, with or without 20 ng/mL VEGF
Experimental: HRECs were seeded on a transwell filter. After reaching confluency, the cells were pretreated with Sac0601 (FIG. 10a) and Sac0504 (FIG. 10b) for 60 minutes before treating with 20 ng/ml. VEGF (1 hr). The permeability of HRECs was determined by measuring radiation of […] (1 μCi/μL) diffused below the transwell using a liquid scintillation counter.
The effect of Sac0601 and Sac0504 on vascular permeability was analyzed. HRECs were seeded on a transwell filter (Corning Costar). After reaching confluency, the cells were cultured in M199 medium containing 1% FBS for 3 hours and treated with 10 μg/mL. Sac0601 (FIG. 10a) or Sac0504 (FIG. 10b) for 60 minutes, with or without pretreatment with 20 ng/mL VEGF for 60 minutes. Then, [^3H]sucrose (1 μCi [0.037 MBq.]/μL or 50 μL (0.8 μCi [0.0296 MBq])/mL, Amersham Pharmacia) were added. 30 minutes later, radiation diffused below the transwell was measured using a liquid scintillation counter (Wallac, PerkinElmer). Measurement was made at least four locations.

[5] = tested on: diabetic mouse (DM) model; experiment: Retinal vascular permeability in diabetic mouse (DM) model, FITC-dextran; assay type: in vivo, C57/BL6 mouse; conditions: streptozotocin diabetic mouse, 10 μg into the vitreous body, 24 hours
Experimental: 10 μg of Sac0601 or 10 μg of Sac0504 was injected into the vitreous body of one eye of a diabetic mouse. 24 hours after the injection, 100 μL of FITC-dextran (30 mg/mL in filtered […]) was injected into the left ventricle. Then, the retina was observed under an optical microscope (FIG. 11a) and the fluorescence intensity was quantified (FIG. 11b).
For in vivo analysis of the effect of the synthesized Rk1 derivatives on increased vascular permeability in diabetic retinopathy, a diabetic mouse (DM) model was made by injecting streptozotocin to C57/BL6 mouse. Sac 0601 or Sac 0504 (10 μg) was injected into the vitreous body of the mouse. 24 hours later, 40-kDa FITC-dextran (30 mg/mL in PBS, Sigma) was injected into the left ventricle. After waiting for about 2 minutes for circulation of the tracer, the eyes were taken out and fixed immediately in 4% PFA. Then, the retina was taken out and observed under an optical microscope.

Row | Structure (SMILES) | ability of inhibiting apoptosis (cell viability by MTT assay) [1] | ability of protecting retinal vascular endothelial cells from apoptosis induced by the removal of serum (MTT) [2] | change in actin structure and TJ stability at the cell-cell contacts induced by VEGF [3] | permeability of the vascular endothelial cells [4] | retinal vascular permeability induced in the DM [5]
1 | CC(C)CCC[C@@H](C)[C@H]1CC[C@H]2[C@@H]3CC=C4C[C@@H](OC5CCCCO5)CC[C@]4(C)[C@H]3CC[C@]12C (stereo partly shown) [Sac0504] | comparable to that of Rk1 | have the ability of protecting the retinal vascular endothelial cells from apoptosis | can be restored | inhibiting permeability of the vascular endothelial cells | partially inhibits; also recorded: only limitedly
2 | CC(=O)OCC1OC(OC2CCC3(C)C(=CCC4C3CCC3(C)C(C(C)CCCC(C)C)CCC43)C2)C=CC1OC(C)=O (stereo not shown) [Sac0601] | comparable to that of Rk1 | have the ability of protecting the retinal vascular endothelial cells from apoptosis | can be restored | inhibiting permeability of the vascular endothelial cells | completely inhibits; also recorded: very effectively
